Experimental data published in US4876280A, “Arylcyclohexane and arylcyclohexene analogs of mevalonolactone derivatives and their use” (Sandoz Pharm. Corp., priority 1988, dated 1989).
Like-named read-outs stand apart in the source and are kept apart here.

Legend:
[1] = target: T1, HMG-CoA reductase (Rattus norvegicus, UniProt P51639); assay: Test A: In Vitro Microsomal Assay of HMG-CoA Reductase Inhibition; type: biochemical; conditions: rat liver microsomes, read-out: IC50 (50% inhibition of HMG-CoA reductase activity)
T1 construct: rat liver microsomal suspensions, freshly prepared from male Sprague-Dawley rats; from tissue; host or cells: liver microsomes of male Sprague-Dawley rats
T1 sequence (P51639 1-887): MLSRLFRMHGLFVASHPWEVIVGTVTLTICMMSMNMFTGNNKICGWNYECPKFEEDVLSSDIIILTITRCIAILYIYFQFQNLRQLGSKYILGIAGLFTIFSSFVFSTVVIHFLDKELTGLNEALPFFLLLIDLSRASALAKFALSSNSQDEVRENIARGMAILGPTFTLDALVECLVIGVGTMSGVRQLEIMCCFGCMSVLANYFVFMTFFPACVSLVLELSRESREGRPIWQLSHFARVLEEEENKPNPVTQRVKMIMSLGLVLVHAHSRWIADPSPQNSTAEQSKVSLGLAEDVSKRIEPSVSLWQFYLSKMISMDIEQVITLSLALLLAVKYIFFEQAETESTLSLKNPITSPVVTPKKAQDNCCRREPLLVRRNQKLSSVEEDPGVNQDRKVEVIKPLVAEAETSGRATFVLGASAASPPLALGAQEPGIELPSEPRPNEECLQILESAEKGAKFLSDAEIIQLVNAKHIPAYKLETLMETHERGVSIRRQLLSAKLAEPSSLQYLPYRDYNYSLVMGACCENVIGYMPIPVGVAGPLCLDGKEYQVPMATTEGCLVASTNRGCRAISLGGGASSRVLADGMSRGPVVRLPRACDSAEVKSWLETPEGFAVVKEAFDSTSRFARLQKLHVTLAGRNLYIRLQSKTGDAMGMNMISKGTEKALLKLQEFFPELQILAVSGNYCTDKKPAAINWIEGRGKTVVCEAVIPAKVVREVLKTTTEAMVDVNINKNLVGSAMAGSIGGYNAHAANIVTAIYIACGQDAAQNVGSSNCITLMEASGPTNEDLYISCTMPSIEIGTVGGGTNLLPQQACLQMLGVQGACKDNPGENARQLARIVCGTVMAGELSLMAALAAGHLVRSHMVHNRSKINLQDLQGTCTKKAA
Protocol: Test A. In Vitro Microsomal Assay of HMG-CoA Reductase Inhibition:
200 μl. aliquots (1.08-1.50 mg./ml.) of rat liver microsomal suspensions, freshly prepared from male Sprague-Dawley rats (150-225 g. body weight), in Buffer A with 10 mmol. dithiothreitol are incubated with 10 μl. of a solution of the test substance dissolved in dimethylacetamide and assayed for HMG-CoA reductase activity as described by Ackerman et al., J. Lipid Res. 18, 408-413 (1977), the concentration of the test substance in the assay system being 0.01-2,000 μmolar. In the assay the microsomes are the source of the HMG-CoA reductase enzyme which catalyzes the reduction of HMG-CoA to mevalonate. The assay employs a chloroform extraction to separate the product, [^14 C]-mevalonolactone, formed by the HMG-CoA reductase reaction from the substrate, [^14 C]HMG-CoA. [^3 H]mevalonolactone is added as an internal reference. Inhibition of HMG-CoA reductase is calculated from the decrease in specific activity [^14 C/^3 H]mevalonate) of test groups compared to controls.
IC50 is the concentration of the test substance in the assay system observed or calculated to produce a 50% inhibition of HMG-CoA reductase activity (Test A) or sterol biosynthesis (Test B).

[2] = test system: sterol biosynthesis in Fu5AH rat hepatoma cell line; assay: Test B: In Vitro Cell Culture Cholesterol Biosynthesis Screen; type: cell-based; conditions: Fu5AH rat hepatoma cells, [14C]acetate, 3 hours, read-out: IC50 (50% inhibition of sterol biosynthesis)
Protocol: Test B. In Vitro Cell Culture Cholesterol Biosynthesis Screen:
The cell culture is prepared as follows: Stock monolayer cultures of the Fu5AH rat hepatoma cell line (originally obtained from G. Rothblat; see Rothblat, Lipids 9, 526-535 (1974) are routinely maintained in Eagle's Minimum Essential Medium (EMEM) supplemented with 10% fetal bovine serum (FBS) in 75 cm^2. tissue culture flasks. For these studies, when the cultures reach confluence, they are removed by mild enzymatic treatment with 0.25% trypsin in Hank's balanced salt solution (without calcium and magnesium). After centrifugation of the cell suspension and aspiration of the enzymatic solution, the cell pellet is resuspended in an appropriate volume of media for seeding into 60 mm. tissue culture dishes. The cultures are incubated at 37° C. in an atmosphere of high humidity and 5% carbon dioxide. When the cultures are confluent (approximately 5 days), they are ready for use. The culture media is aspirated from the dishes and replaced with 3 ml. of EMEM supplemented with 5 mg./ml. of delipidized serum protein (DLSP) prepared by the method of Rothblat et al., In Vitro 12, 554-447 (1976). […] Enhanced 3-hydroxy-3-methylglutaryl Coenzyme A reductase (HMG-CoA reductase) activity is measurable in the cells in response to the lack of exogenous sterol. Following approximately 24 hours incubation at 37° C. in the DLSP supplemented media, the assay is initiated by the addition of 3 μCi of [^14 C]acetate and the test substances solubilized in dimethylsulfoxide (DMSO) or distilled water. Solvent controls and compactin-treated controls are always prepared. Triplicate 60 mm. tissue culture dishes are run for each group. After 3 hours incubation at 37° C., the cultures are examined microscopically using an inverted phase contrast microscope. Notations are made of any morphological changes which may have occurred in the cultures. The media is aspirated and the cell layer is gently washed twice with 0.9% sodium chloride solution (saline). The cell layer is then harvested in 3 ml. of 0.9% saline by gentle scraping with a rubber policeman and transferred to a clean glass tube with Teflon lined cap. The dishes are rinsed with 3 ml. of 0.9% saline and rescraped, and the cells are combined with the first harvest. The tubes are centrifuged at 1500 r.p.m. for 10 minutes in an IEC PR-J centrifuge, and the supernatant is aspirated.
The cells are then extracted as follows: One ml. of 100% ethanol is added to the cell pellet followed by sonication for 10 seconds with a "LO" setting of 50 on a Bronwell Biosonik IV. One hundred μl. are taken for protein determination. One ml. of 15% potassium hydroxide (KOH) is added, and the samples are thoroughly vortexed. Saponification is accomplished by heating the ethanol-KOH treated samples at 60° C. for 60 minutes in a water bath. Following dilution of the samples with 2 ml. of distilled water, they are extracted three times with 7 ml. of petroleum ether. The petroleum ether extracts are then washed three times with 2 ml. of distilled water and finally taken to dryness under a stream of nitrogen.
The obtained samples are then analyzed by thin layer chromatography (TLC) as follows: Residues from the petroleum ether extraction are taken up in a small volume of hexane and spotted on silica gel 60 TLC plates (E. Merck). Development of the plates is carried out in a three phase solvent system consisting of 150 parts by volume hexane: 50 parts by volume diethyl ether: 5 parts by volume glacial acetic acid. Visualization is accomplished in an iodine vapor chamber. The plates are divided into five sections such that each section contains the molecules having the following approximate Rf value: section 1-0-0.4, section 12-0.4-0.55, section 3-0.55-0.7, section 4-0.7-0.9 and section 5-0.9-1.0. Section 2 contains the non-saponifiable sterols. The five sections of the TLC plates are scraped into scintillation vials. […]

[3] = test system: 3β-hydroxysterol synthesis; assay: Test C: In Vivo Cholesterol Biosynthesis Inhibition Test; set-up: species or system rat (male Wistar Royal Hart); conditions: for ED50: Rattus norvegicus, read-out: ED50 (50% inhibition of 3β-hydroxysterol synthesis)
Protocol: Test C. In Vivo Cholesterol Biosynthesis Inhibition Test:
In vivo studies utilize male Wistar Royal Hart rats weighing 150±20 g. which have been kept for 7-10 days on an altered light cycle (6:30 A.M.-6.30 P.M. dark) housed two per cage and fed powdered Purina Rat Chow and water ad libitum. Three hours before the diurnal maximum of cholesterol synthesis at mid-dark, the rats are administered the test substances dissolved or as a suspension in 0.5% carboxymethylcellulose in a volume of 1 ml./100 g. body weight. Controls receive vehicle alone. One hour after receiving the test substance, the rats are injected intraperitoneally with about 25 μCi/100 g. body weight of sodium [1-^14 C]acetate 1-3 mCi/mmol. Two hours after mid-dark, blood samples are obtained under sodium hexobarbitol anesthesia, and the serum separated by centrifugation. (The dosage of the test substance is 0.01-200 mg./kg. body weight.)
The [^14 C]digitonides are then counted by liquid scintillation spectrometry. After correcting for efficiencies, the results are calculated in nCi (nanocuries) of sterol formed per 100 ml. of serum. Inhibition of sterol synthesis is calculated from the reduction in the nCi of sterols formed from test groups compared to controls.
The ED50 is the dose of the test substances observed or calculated to produce a 50% inhibition of 3β-hydroxysterol synthesis.

[4] = Test C, male Wistar Royal Hart rats

| Compound | IC50 [1] | IC50 [2] | ED50 [3, 4] | change in 3β-hydroxysterol synthesis ([3]; Test C, male Wistar Royal Hart rats, at 5.9 mg./kg.) | ED50 [3] |
| --- | --- | --- | --- | --- | --- |
| CC[C@H](C)C(=O)O[C@H]1CCC=C2C=C[C@H](C)[C@H](CC[C@@H]3C[C@@H](O)CC(=O)O3)[C@H]21 [Compactin, reference compound] | 0.94 µM | 0.08 µM | 3.5 mg/kg |  |  |
| C[C@@H]1C=C[C@H](C)[C@H](c2ccc(F)cc2)[C@H]1/C=C/C1CC(O)CC(=O)O1 (stereo partly drawn) [Example 3, (E)-6-[2'-(2"α,5"α-Dimethyl-6"α-(4'"-fluorophenyl)cyclohex-3"-en-1"βS-yl)ethenyl]-4-hydroxy-3,4,5,6-tetrahydro-2H-pyran-2-one] | 8.13 µM | 1.2 µM | 2.4 mg/kg |  |  |
| C[C@@H]1C=C[C@H](C)[C@H](c2ccc(F)cc2)[C@H]1/C=C/[C@@H]1C[C@@H](O)CC(=O)O1 [Example 3A, (E)-Trans-6S-[2'-(2"α,5"α-Dimethyl-6"α-(4'"-fluorophenyl)cyclohex-3"-en-1"βS-yl)ethenyl]-4R-hydroxy-3,4,5,6-tetrahydro-2H-pyran-2-one] | 3.23 µM |  |  |  |  |
| C[C@@H]1C=C[C@H](C)[C@H](c2ccc(F)cc2)[C@H]1/C=C/C(O)CC(O)CC(=O)O (stereo partly drawn) [Example 5, Sodium (E)-3,5-dihydroxy-7-[2'α,5'α-dimethyl-6'α-(4"-fluorophenyl)cyclohex-3'-en-1'βS-yl]hept-6-enoate] | 1.19 µM | 0.6 µM | 2.07 mg/kg |  |  |
| C[C@@H]1C=C[C@H](C)[C@H](c2ccc(F)cc2)[C@H]1/C=C/[C@@H](O)C[C@@H](O)CC(=O)O [Example 5A, Sodium (E)-3R,5S-dihydroxy-7-[2'α,5'α-dimethyl-6'α-(4"-fluorophenyl)cyclohex-3'-en-1'βS-yl]hept-6-enoate] | 0.54 µM |  |  |  |  |
| CCOC(=O)CC(O)CC(O)/C=C/[C@@H]1[C@@H](c2cccc3ccccc23)[C@@H](C)C=C[C@H]1C (stereo partly drawn) [Example 6, Ethyl (E)-3,5-dihydroxy-7-(2'α,5'α-dimethyl-6'α-naphth-1"-ylcyclohex-3'-en-1'βS-yl)hept-6-enoate] | 5.57 µM |  |  |  |  |
| O=C1CC(O)CC(/C=C/[C@H]2CC=CC[C@@H]2c2ccccc2)O1 (stereo partly drawn) [Example 67B] | 1370 µM |  |  |  |  |
| O=C1CC(O)CC(/C=C/[C@@H]2CC=CC[C@H]2c2ccc(Cl)cc2)O1 (stereo partly drawn) [Example 73] | 450 µM |  |  |  |  |
| C[C@@H]1C=C[C@H](C)[C@@H](/C=C/C2CC(O)CC(=O)O2)[C@@H]1c1ccc(F)cc1 (stereo partly drawn) [Example 74] | 116 µM | 5.8 µM | 20 mg/kg |  |  |
| C[C@@H]1C=C[C@H](C)[C@H](c2ccccc2)[C@H]1/C=C/C1CC(O)CC(=O)O1 (stereo partly drawn) [Example 79] | 29 µM | 4.8 µM |  | -62% |  |
| C[C@@H]1CC[C@H](C)[C@H](c2ccc(F)cc2)[C@H]1CCC(O)CC(O)CC(=O)O (stereo partly drawn) [Example 85] | 7.2 µM |  |  |  |  |
| CCOC(=O)CC(O)CC(O)/C=C/[C@@H]1[C@@H](c2ccc(F)cc2)[C@H](C)CC[C@H]1C(C)C (stereo partly drawn) [Example 86] | 141 µM | 5.4 µM |  |  |  |
| CC[C@H](C)C(=O)O[C@H]1C[C@@H](C)C=C2C=C[C@H](C)[C@H](CC[C@@H]3C[C@@H](O)CC(=O)O3)[C@H]21 [Mevinolin, reference compound] |  |  |  |  | 0.41 mg/kg |
